In one assay the test system is Estradiol E2. As to the kind of experiment: Estradiol E2 level in blood (serum CLIA) after repeated sc PEP-1. It counts as in vivo, SD rats. As to the method:
PEP-1 (peptide of SEQ ID NO: 1), lyophilized white powder, obtained according to the method mentioned in example 1 was dissolved in 0.9% of saline, considering the correction factor of PEP-1 (purity: 94.13%, content: 92.36%, correction factor: 1.15). 50 mg/mL stock solution was further diluted into 20 mg/mL, 2 mg/mL, and 1 mg/mL with 0.9% saline, and stored at 4° C. for a week until the use.
The purpose of this example is to confirm the change of sexual hormones in blood from SD rats with 7 days repeated daily administration of SEQ ID NO: 1 peptide, PEP-1. This experiment followed the Ethics Regulation of Animal Test by KAMSI Inc. (Korea Animal Medical Science Institute). In addition, this experiment, Non-GLP experiment, referred to the MFDS (Ministry of Food and Drug Safety) notification; Agent 2013-40 (5th April 2013), Principles of Good Laboratory Practice (1997).
SPF Rats (Crlj:CD(SD)) were purchased from ORIENTBio Inc. (Mokdong-ri, Buk-myeon, Gapyeong-gun, Gyeonggi-do, Republic of Korea). 75 male (6.5 weeks old and 190˜210 g) and 75 female (6.5 weeks old and 160˜180 g) rats were monitored for 4 days, and 64 of male and female rats (each) were selected for the experiment. Raising condition is as follows; 23±3° C. of temperature, […] of relative humidity, 10˜20 times/hr of number of air changes, 12 hours (8 a.m.˜8 p.m.) of lighting with 150˜300 Lux of intensity.
64 male and female […] (mentioned above) were divided into 8 groups. Administration regimen, for example, drugs, routes, dosages, and volumes were as follows:
The detailed administration regimen is as follows; once a day, twice a day and twice a week in each experimental group. Injection initiated at 10 a.m. every day, and each rat was injected at one minute intervals. Rats in Group 9, 10, 13 and 14 were injected twice a week. Administration of high dose test agent preceded that of low dose. The volume of injection was calculated using recently measured weight of rats, and it was 5 mL/kg. Subcutaneous injection was performed as follows; assistant tilted the back of rat upward, and experimenter sterilized the back of rat with 70% alcohol, followed by subcutaneous injection of test agent with 26 G syringe.
1.4 mL of blood sample (0.7 mL of serum) was collected after measurement of weight (Day 0). Next day (1 Day), 1.4 mL of blood sample (0.7 mL of serum) was collected twice after injection of test agent (4 hrs and 8 hrs after administration of test agent). […]
A CLIA (Chemi-Luminescence Immune Assay) Kit was used to analyze Testosterone, Estradiol E2, FSH (Follicle stimulating hormone), and LH (Luteinizing hormone). […]
Estradiol E2 was analyzed using the samples prepared from example 2. […] As mentioned in example 2, CLIA (Chemi-luminescence immune assay) Kit was used, following the manufacture's protocol. […]

The subject of a further assay is GnRH mRNA. Put plainly: Relative GnRH mRNA expression in serum, real-time qPCR. It counts as in vivo, Sprague-Dawley (SD) rats. The note with it: 100 mg/kg sc, 4 hr post-administration, Day 1. As to the method:
Sprague-Dawley (SD) rats were obtained from Orient Bio (Gyronggi-do, South Korea), and seven-week-old rats were used for the study. Rat were administered by subcutaneous (sc) injection of PEP-1 (100 mg/kg) twice (at Day 1 and at Day 7) during the seven day study period. Blood samples (1.4 mL) were collected at Day 0 (before the administration of PEP-1), at Day 1 (4 hr and 8 hr post injection), and at Day 7 (4 hr post injection). Serum samples obtained from the blood were used for the experiment. Serum samples prepared from the blood collected at Day 1 (4 hr post injection) were used for the experiment. The animal care and procedures were approved and in accordance with the Korea Animal Medical Science Institute (KAMSI) IACUC.
RNA isolation and cDNA synthesis from the serum samples. The external control, miRNeasy Serum/Plasma Spike-In Control was added in each serum sample prior to the RNA extraction. […]
Real-time qPCR was performed using the RT2 SYBR Green qPCR Mastermix kit (Qiagen) with a CFX96 Real-Time System (Bio-Rad, Hercules, Calif., USA). Data was analyzed by CFX Manager™ Software V3.0 using the ΔΔCt method.
Rat serum samples obtained from the blood collected at 4 hr post-administration of PEP-1 (100 mg/kg) on the 1st day of the experiment were analyzed for the mRNA expression of gonadotropin-releasing hormone (GnRH). […]

Consider one sequence from patent publication US10561703B2, “Method of modulating sex hormone levels using a sex hormone secretion modulator” (GEMVAX & KAEL CO., LTD., priority 2013, dated 2020).

Take “EARPALLTSRLRFIPK (listed as Homo sapiens) [PEP-1, hormone secretion modulator / GnRH analog]”: the “Estradiol E2 level” value is 16 to 30 pg/mL in the assay on Estradiol E2 (female group, Day 1, all groups (PEP-1 and/or vehicle), baseline 20-50 pg/mL) and 15 to 20 pg/mL with Estradiol E2 (male rat, initial level remained same until Day 7). For the same sequence, the “Effect on Estradiol E2 level” value with Estradiol E2 (female group, level recovered from Day 3-4) is “inhibited the Estradiol E2 level in the beginning”; in the assay with Estradiol E2 (male rat), “does not have effect on Estradiol E2 level”. Also, the “Relative GnRH mRNA expression in serum” value with GnRH mRNA (female rats) and with GnRH mRNA (male rats) was “increased the relative GnRH mRNA expression” each time.
